Legend:
[1] = tested on: Arabidopsis thaliana seeds; assay: Arabidopsis seed germination on sterol-supplemented media; assay type: in vivo; conditions: for decrease in germination: 100 μM exogenous sterol
Experimental: (§1) Plants and Plant Growth Conditions. Cholesterol (C3045, Sigma-Aldrich, USA), stigmasterol (S2424, Sigma-Aldrich, USA), and β-sitosterol (567152, Millipore-Sigma, USA) were prepared as stock solutions with a slight modification from that described in literature. Sterols were dissolved in 100% ethanol at 1.5 mM concentration and combined with methyl-β-cyclodextrin (MβCD) (Sigma-Aldrich, USA) at a molar ratio of 1:3 to a final concentration of 1-300 μM sterol and 1-900 μM MβCD. The probe was either sonicated for 30 minutes and vortexed for 15 minutes before use, or just vortexed for 30 min before use. To make a powered water soluble form, the sterol (40-70% w/w β-sitosterol) is dissolved in 100% ethanol and then solubilized in β-cyclodextrins or their derivatives in water. The solution is then reduced by evaporation or freeze-drying to a powdered form.
(§2) The wild-type and transgenic seeds of Arabidopsis thaliana were surface-sterilized with 70% ethanol, rinsed in sterile distilled water (+/− sterol) and incubated at 4° C. in the dark for 48 hr. The imbibed seeds were then planted either planted in Petri dishes or in hydroponic containers. For Petri dish growth, 1% (w/v) agar (Sigma-Aldrich, USA) was dissolved in ½ strength Murashige and Skoog medium containing vitamins (Caisson Labs, USA) (+/− sterol), and the pH was adjusted to between 5.6 and 5.8. The seedlings were grown in vertically placed Petri dishes containing this medium for 5-10 days at 22° C. under the continuous white light (50 μmol m^−2sec^−1 photosynthetically active radiation). Hydroponic culture was a modification of that described in previous literature. The seeds were placed on a mesh inserted into the bottom of a sterile polypropylene 2 oz cup with a lid (TY-M2-100, Bingwu, sold on Amazon) inset into either a 4 oz sterile polypropylene cup (TY-M4-N50 Bingwu, sold on Amazon) or a black 5.5 oz sterile polypropylene Dart Conex cup (B07BK1DPPS, Table Top King, sold on Amazon). Enough medium (½ strength Murashige and Skoog medium containing vitamins (Caisson Labs, USA) (+/− sterol), and the pH was adjusted to between 5.6 and 5.8) was added to bring it up to the level of the mesh. They were grown for […] to maturity (˜75 days) in an 18:6 hr photoperiod at 22° C. with 100 […] photosynthetically active. Following growth, they were then harvested for sterol analysis, leaf venation analysis, or fresh and dry weight analysis, or photographed for image analysis of root, hypocotyl, and stem growth and color. Seed from typical crop plants, Nicotiana tabacum (tobacco) and Zea mays (corn) were also sown in defined medium in the presence and absence of encapsulated sterol to assess percent germination after one week. Common weed seeds (Amaranthus palmeri, Poa annua, and Ambrosia sp.) collected from natural sources were either grown in defined media (agar and Mirashige and Skoog medium) or planted in natural soils (sandy loam) in 2 inch inserts in plastic one foot square flats. They were treated with 100-500 microMolar phytosterol mix (40% β-sitosterol, 20% campesterol, 7% stigmasterol (SKU BSIT100, Bulk Supplements) with a 3:1 molar ratio of methyl-β-cyclodextrin in water. Growth was assessed in treated and untreated (only water) by seedling emergence in days after planting in a greenhouse with natural lighting.
(§3) Materials and Methods. Arabidopsis seeds were given a pre-cold treatment with a mixture of sterol, cholesterol (Sigma-Aldrich) or stigmasterol (Sigma-Aldrich) (1 microMolar, 10 microMolar and 100 microMolar) and methyl-β-cyclodextrin (Sigma-Aldrich) (1:3 ratio) and then planted on Murashige and Skoog-½ strength (Caisson's Lab) 1% agar media supplemented with a mixture of respective sterol and cyclodexterin (1:3 ratio). Common weed seeds (Amaranthus palmeri, Poa annua, and Ambrosia sp.) collected from natural sources were planted in natural soils (sandy loam) in 2 inch inserts in plastic one foot square flats. […]

[2] = tested on: Arabidopsis thaliana; assay: Arabidopsis growth and development on sterol-supplemented media; assay type: in vivo; conditions: for growth phenotype: 100 μM exogenous sterol; for root anatomy: 100 μM sterol; for biomass: 8-days old seedlings on sterol-supplemented media, high sterol (FIG. 5A, 5B); for chlorophyll levels: plants grown on sterol media (FIG. 4A-4D); for root and root hair growth and development: sterol-supplemented media (FIG. 3A-3E)
Experimental: as §1, §2, §3

[3] = 10 microMolar encapsulated sterol
[4] = 100 microMolar encapsulated sterol

Row | SMILES | decrease in germination [1] [%] | seed germination (in words) [1, 3] | seed germination (in words) [1, 4] | germination inhibited ([1]; 300 microMolar encapsulated sterol, after a week of growth (FIG. 6A)) [%] | vein pattern ([2]; 100 μM) | growth phenotype [2] | root anatomy [2] | biomass [2] | chlorophyll levels [2] | root and root hair growth and development [2]
1 | CC(C)CCC[C@@H](C)[C@H]1CC[C@H]2[C@@H]3CC=C4C[C@@H](O)CC[C@]4(C)[C@H]3CC[C@]12C [cholesterol, Cholesterol] | 40 | seeds germinate | significantly inhibit | 90 | altered vein pattern | severe dwarfism | altered root anatomy | reduced biomass | change chlorophyll levels | alters
2 | CC[C@H](/C=C/[C@@H](C)[C@H]1CC[C@H]2[C@@H]3CC=C4C[C@@H](O)CC[C@]4(C)[C@H]3CC[C@]12C)C(C)C [stigmasterol] | 35 | seeds germinate | significantly inhibit | – | – | severe dwarfism | altered root anatomy | reduced biomass | change chlorophyll levels | alters
